Data: patent US10030020B2, “Spirocycle compounds and methods of making and using same” (Abide Therapeutics, Inc., priority 2016, dated 2018)
Where two headings read alike, the source gives them in different places.

How the values were obtained:
MAGL [1] = molecular target: T1, MAGL (Mus musculus (Mouse), UniProt O35678); assay: In vitro competitive activity-based protein profiling (mouse brain membrane fraction or cell lysates), MAGL band; format: biochemical; conditions: for inhibition at 1 µM: read-out: MAGL % Inh 1 μM (mouse); for IC50: competitive ABPP
Procedure: In Vitro Competitive Activity-Based Protein Profiling.
Proteomes (mouse brain membrane fraction or cell lysates) (50 μL, 1.0 mg/mL total protein concentration) were preincubated with varying concentrations of inhibitors at 37° C. After 30 min, FP—Rh (1.0 μL, 50 μM in DMSO) was added and the mixture was incubated for another 30 min at 37° C. Reactions were quenched with SDS loading buffer (50 μL-4×) and run on SDS-PAGE.

ABHD6 [2] = molecular target: T2, ABHD6 (Mus musculus (Mouse), UniProt Q8R2Y0); assay: In vitro competitive activity-based protein profiling (mouse brain membrane fraction or cell lysates), ABHD6 band; format: biochemical; conditions: for inhibition at 1 µM: read-out: ABHD6 % Inh 1 μM (mouse); for IC50: competitive ABPP
Summary of the method: (§1)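 Residual hydrolase activity was measured as gel band fluorescence after FP-Rh labelling (30 min, 37° C) of proteomes pretreated 30 min at 37° C with inhibitor.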

FAAH [3] = molecular target: T3, FAAH (Mus musculus (Mouse), UniProt O08914); assay: In vitro competitive activity-based protein profiling (mouse brain membrane fraction or cell lysates), FAAH band; format: biochemical; conditions: for inhibition at 1 µM: read-out: FAAH % Inh 1 μM (mouse); for IC50: competitive ABPP
Summary of the method: as §1

MAGL [4] = molecular target: T1, MAGL; assay: Mouse brain proteomes from inhibitor treated mice (oral gavage, sacrificed 4 h after administration, ABPP analysis); format: in vivo, mouse (C57Bl/6J); conditions: 5 mg/kg oral gavage
Procedure: (§2) Preparation of Mouse Brain Proteomes from Inhibitor Treated Mice.
(§3) Inhibitors were administered to wild-type C57Bl/6J by oral gavage in a vehicle, e.g. PEG400/Ethanol/PBS (7/2/1). Each animal was sacrificed 4 h following administration and brain proteomes were prepared and analyzed according to previously established methods (See Niphakis, M. J., et al. (2011) ACS Chem. Neurosci. and Long, J. Z., et al. Nat. Chem. Biol. 5:37-44). Data from this assay is shown in Table 2 (% inhibition at 5 mg/kg).

FAAH [5] = molecular target: T3, FAAH; assay: Mouse brain proteomes from inhibitor treated mice (oral gavage, sacrificed 4 h after administration, ABPP analysis), FAAH; format: in vivo, mouse (C57Bl/6J); conditions: 5 mg/kg oral gavage
Procedure: as §2, §3

ABHD6 [6] = molecular target: T2, ABHD6; assay: Mouse brain proteomes from inhibitor treated mice (oral gavage, sacrificed 4 h after administration, ABPP analysis), ABHD6; format: in vivo, mouse (C57Bl/6J); conditions: 5 mg/kg oral gavage
Procedure: as §2, §3

T2 sequence (Q8R2Y0 whole entry): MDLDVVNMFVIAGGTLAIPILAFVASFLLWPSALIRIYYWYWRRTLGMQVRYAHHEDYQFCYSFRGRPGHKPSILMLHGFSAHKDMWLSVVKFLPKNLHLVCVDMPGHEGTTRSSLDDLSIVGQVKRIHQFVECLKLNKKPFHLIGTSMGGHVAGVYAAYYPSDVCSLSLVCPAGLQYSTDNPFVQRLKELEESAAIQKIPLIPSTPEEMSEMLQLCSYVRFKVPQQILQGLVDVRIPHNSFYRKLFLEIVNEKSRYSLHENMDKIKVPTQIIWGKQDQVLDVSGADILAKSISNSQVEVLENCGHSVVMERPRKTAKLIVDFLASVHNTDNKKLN
T3 sequence (O08914 whole entry): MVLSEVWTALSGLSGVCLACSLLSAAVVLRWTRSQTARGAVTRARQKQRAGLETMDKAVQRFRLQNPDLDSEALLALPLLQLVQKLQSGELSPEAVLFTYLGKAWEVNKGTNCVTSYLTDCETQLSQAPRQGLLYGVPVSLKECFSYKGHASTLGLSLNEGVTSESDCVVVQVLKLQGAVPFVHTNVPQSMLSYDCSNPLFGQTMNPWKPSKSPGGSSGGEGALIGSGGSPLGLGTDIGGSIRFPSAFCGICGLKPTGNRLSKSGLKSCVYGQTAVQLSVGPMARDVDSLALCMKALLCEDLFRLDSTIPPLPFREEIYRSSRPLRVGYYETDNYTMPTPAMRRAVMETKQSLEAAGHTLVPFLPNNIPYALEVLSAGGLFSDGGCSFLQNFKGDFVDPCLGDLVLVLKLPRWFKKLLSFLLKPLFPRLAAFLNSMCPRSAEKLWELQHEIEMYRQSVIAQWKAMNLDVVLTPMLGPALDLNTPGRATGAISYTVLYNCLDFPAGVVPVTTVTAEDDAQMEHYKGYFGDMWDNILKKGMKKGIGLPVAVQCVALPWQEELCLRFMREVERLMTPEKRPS
T1 sequence (O35678 whole entry): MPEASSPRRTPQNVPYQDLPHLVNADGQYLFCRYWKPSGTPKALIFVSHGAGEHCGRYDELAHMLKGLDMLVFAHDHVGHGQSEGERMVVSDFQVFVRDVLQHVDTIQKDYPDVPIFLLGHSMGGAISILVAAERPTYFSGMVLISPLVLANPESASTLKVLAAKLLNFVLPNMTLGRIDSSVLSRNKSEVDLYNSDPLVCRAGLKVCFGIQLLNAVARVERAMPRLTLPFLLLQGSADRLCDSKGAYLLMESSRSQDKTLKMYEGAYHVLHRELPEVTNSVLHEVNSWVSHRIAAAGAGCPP

SMILES	inhibition at 1 µM (MAGL [1]; mouse proteome) [%]	IC50 (MAGL [1]; mouse proteome) [µM]	inhibition at 1 µM (ABHD6 [2]; mouse proteome) [%]	IC50 (ABHD6 [2]; mouse proteome) [µM]	inhibition at 1 µM (FAAH [3]; mouse proteome) [%]	IC50 (FAAH [3]; mouse proteome) [µM]	MAGL % Inh 5 mg/kg (mouse) (MAGL [4])	FAAH % Inh 5 mg/kg (mouse) (FAAH [5])	ABHD6 % Inh 5 mg/kg (mouse) (ABHD6 [6])	inhibition at 1 µM (MAGL [1]; mouse) [%]	inhibition at 1 µM (ABHD6 [2]; mouse) [%]	inhibition at 1 µM (FAAH [3]; mouse) [%]
CCOc1ccc(CN2CCCC23CCN(C(=O)OC(C(F)(F)F)C(F)(F)F)CC3)cc1 [Example 4, 1,1,1,3,3,3-Hexafluoropropan-2-yl 1-(4-ethoxybenzyl)-1,8-diazaspiro[4.5]decane-8-carboxylate]	> 75	0.1 to 1	< 25	> 1	< 25	> 1	### (### is ≥75%)	# (# is <25%)	# (# is <25%)	–	–	–
CCOc1cccc(CN2CCCC23CCN(C(=O)OC(C(F)(F)F)C(F)(F)F)CC3)c1 [Example 5, 1,1,1,3,3,3-Hexafluoropropan-2-yl 1-(3-ethoxybenzyl)-1,8-diazaspiro[4.5]decane-8-carboxylate]	> 75	< 0.1	< 25	> 1	< 25	> 1	### (### is ≥75%)	# (# is <25%)	## (## is equal to or greater than 25% but less than 75%)	–	–	–
O=C(OC(C(F)(F)F)C(F)(F)F)N1CCC2(CCCN2Cc2ccc(C(F)(F)F)cc2OC2CCS(=O)(=O)CC2)CC1 [Example 175, 1,1,1,3,3,3-Hexafluoropropan-2-yl 1-(2-((1,1-dioxidotetrahydro-2H-thiopyran-4-yl)oxy)-4-(trifluoromethyl)benzyl)-1,8-diazaspiro[4.5]decane-8-carboxylate]	> 75	< 0.1	< 25	> 1	< 25	> 1	–	–	–	–	–	–
NC(=O)c1ccc(CN2CCCC23CCN(C(=O)OC(C(F)(F)F)C(F)(F)F)CC3)cc1C(F)(F)F [Example 181, 1,1,1,3,3,3-Hexafluoropropan-2-yl 1-(4-carbamoyl-3-(trifluoromethyl)benzyl)-1,8-diazaspiro[4.5]decane-8-carboxylate]	> 75	< 0.1	25 to 75	0.1 to 1	< 25	> 1	–	–	–	–	–	–
CC1(C)CC2(CCN(C(=O)OC(C(F)(F)F)C(F)(F)F)CC2)CN1Cc1cccc(N2CCOCC2)c1Cl [Example 185, 1,1,1,3,3,3-hexafluoropropan-2-yl 2-(2-chloro-3-morpholinobenzyl)-3,3-dimethyl-2,8-diazaspiro[4.5]decane-8-carboxylate]	> 75	0.1 to 1	≥ 75	0.1 to 1	< 25	> 1	–	–	–	–	–	–
CC1(C)CC2(CCN(C(=O)OC(C(F)(F)F)C(F)(F)F)CC2)CN1Cc1cc(Cl)cc(N2CCOCC2)c1 [Example 186, 1,1,1,3,3,3-Hexafluoropropan-2-yl 2-(3-chloro-5-morpholinobenzyl)-3,3-dimethyl-2,8-diazaspiro[4.5]decane-8-carboxylate]	> 75	0.1 to 1	25 to 75	0.1 to 1	< 25	> 1	–	–	–	–	–	–
CC1(C)CC2(CCN(C(=O)OC(C(F)(F)F)C(F)(F)F)CC2)CN1Cc1cc(Cl)ccc1N1CCOCC1 [Example 187, 1,1,1,3,3,3-Hexafluoropropan-2-yl 2-(5-chloro-2-morpholinobenzyl)-3,3-dimethyl-2,8-diazaspiro[4.5]decane-8-carboxylate]	> 75	< 0.1	≥ 75	0.1 to 1	< 25	> 1	–	–	–	–	–	–
CC1(C)CC2(CCN(C(=O)OC(C(F)(F)F)C(F)(F)F)CC2)CN1Cc1cc(N2CCOCC2)cc(C(F)(F)F)c1 [Example 188, 1,1,1,3,3,3-Hexafluoropropan-2-yl 3,3-dimethyl-2-(3-morpholino-5-(trifluoromethyl)benzyl)-2,8-diazaspiro[4.5]decane-8-carboxylate]	> 75	0.1 to 1	25 to 75	0.1 to 1	< 25	> 1	–	–	–	–	–	–
CC1(C)CC2(CCN(C(=O)OC(C(F)(F)F)C(F)(F)F)CC2)CN1Cc1cccc(OC(F)(F)F)c1N1CCOCC1 [Example 190, 1,1,1,3,3,3-Hexafluoropropan-2-yl 3,3-dimethyl-2-(2-morpholino-3-(trifluoromethoxy)benzyl)-2,8-diazaspiro[4.5]decane-8-carboxylate]	> 75	< 0.1	< 25	> 1	< 25	> 1	–	–	–	–	–	–
CC1(C)CC2(CCN(C(=O)OC(C(F)(F)F)C(F)(F)F)CC2)CN1Cc1cccc(CN2CCOCC2)c1F [Example 191, 1,1,1,3,3,3-Hexafluoropropan-2-yl 2-(2-fluoro-3-(morpholinomethyl)benzyl)-3,3-dimethyl-2,8-diazaspiro[4.5]decane-8-carboxylate]	> 75	0.1 to 1	25 to 75	> 1	< 25	> 1	–	–	–	–	–	–
CC1(C)CC2(CCN(C(=O)OC(C(F)(F)F)C(F)(F)F)CC2)CN1Cc1cc(CN2CCOCC2)ccc1OC(F)(F)F [Example 192, 1,1,1,3,3,3-Hexafluoropropan-2-yl 3,3-dimethyl-2-(5-(morpholinomethyl)-2-(trifluoromethoxy)benzyl)-2,8-diazaspiro[4.5]decane-8-carboxylate]	> 75	< 0.1	25 to 75	0.1 to 1	< 25	> 1	–	–	–	–	–	–
O=C(O)C1CCN(c2cc(CN3CCCC34CCN(C(=O)OC(C(F)(F)F)C(F)(F)F)CC4)cc(OC(F)(F)F)c2)CC1 [Example 207]	> 75	–	< 25	–	< 25	–	–	–	–	–	–	–
O=C(O)[C@@H]1CCCN(c2cc(CN3CCC4(CCN(C(=O)OC(C(F)(F)F)C(F)(F)F)CC4)C3)cc(C(F)(F)F)c2)C1 [Example 208]	> 75	–	≥ 75	–	< 25	–	–	–	–	–	–	–
O=C(O)[C@@H]1CCCN(c2cc(CN3CCCC34CCN(C(=O)OC(C(F)(F)F)C(F)(F)F)CC4)cc(C(F)(F)F)c2)C1 [Example 212]	> 75	–	< 25	–	< 25	–	–	–	–	–	–	–
O=C(O)[C@H]1CCCN(c2cc(CN3CCCC34CCN(C(=O)OC(C(F)(F)F)C(F)(F)F)CC4)cc(C(F)(F)F)c2)C1 [Example 213]	> 75	–	< 25	–	< 25	–	–	–	–	–	–	–
O=C(O)C1COCCN1c1cc(C(F)(F)F)ccc1CN1CCC2(CCN(C(=O)OC(C(F)(F)F)C(F)(F)F)CC2)C1 (stereo not drawn) [Example 220]	25 to 75	–	< 25	–	< 25	–	–	–	–	–	–	–
O=C(O)C1CCCCN1c1cc(C(F)(F)F)ccc1CN1CCC2(CCN(C(=O)OC(C(F)(F)F)C(F)(F)F)CC2)C1 (stereo not drawn) [Example 224]	–	–	–	–	–	–	–	–	–	25 to 75	< 25	< 25
O=C(O)c1cccc(CN2CCCC23CCN(C(=O)OC(C(F)(F)F)C(F)(F)F)CC3)c1 [Example 242]	–	–	–	–	–	–	–	–	–	25 to 75	25 to 75	< 25
O=C(O)c1ccc(CN2CCCC23CCN(C(=O)OC(C(F)(F)F)C(F)(F)F)CC3)cc1 [Example 250]	–	–	–	–	–	–	–	–	–	> 75	< 25	< 25
O=C(O)c1ccccc1CN1CCCC12CCN(C(=O)OC(C(F)(F)F)C(F)(F)F)CC2 [Example 251]	–	–	–	–	–	–	–	–	–	25 to 75	< 25	< 25
COc1ccc(CN2CCCC23CCN(C(=O)OC(C(F)(F)F)C(F)(F)F)CC3)cc1C(=O)O [Example 254]	–	–	–	–	–	–	–	–	–	25 to 75	< 25	< 25
Cc1ccc(CN2CCCC23CCN(C(=O)OC(C(F)(F)F)C(F)(F)F)CC3)cc1C(=O)O [Example 257]	–	–	–	–	–	–	–	–	–	< 25	< 25	< 25
O=C(O)C1CCCCN1c1cc(C(F)(F)F)ccc1CN1CCCC12CCN(C(=O)OC(C(F)(F)F)C(F)(F)F)CC2 (stereo not drawn) [Example 259]	–	–	–	–	–	–	–	–	–	< 25	< 25	< 25
NC(=O)C1CCN(c2cc(C(F)(F)F)ccc2CN2CCCC23CCN(C(=O)OC(C(F)(F)F)C(F)(F)F)CC3)CC1 [Example 273]	–	–	–	–	–	–	–	–	–	> 75	25 to 75	< 25
